Legend:
[1] = Tissue distribution in rat; assay type: in vivo, female Sprague Dawley rats; conditions: single oral 120 mg/kg
Protocol: Female Sprague Dawley rats (Charles River, Italy) (2–4/time points) were orally administered with a single dose of 120 mg/kg of MG3 at a constant dose volume of 10 mL/kg; dose and gender were selected based on previous toxicological studies. Two female rats were included as untreated controls. Plasma samples and tissues, i.e., adrenal glands, hearth, kidney, liver, lung, lymph nodes, spleen, ovaries, thymus, and skeletal muscle were collected at 4, 24, 48, 72 and 96 h after administration by animals killed by exsanguination under sodium thiopental anesthesia. Blood was put in heparinized plastic tubes kept on ice-water bath, then centrifuged (10 min, 1200 rpm, +4 °C). One aliquot of about 100 µL of plasma was stored at –80 °C until analysis. Samples of selected organs/tissues were collected, put in plastic cassettes and frozen over liquid nitrogen. Then, organs were thawed out, weighted, and sliced. Homogenates were prepared with ultrasonication on ice in Dulbecco buffer (10 μL/mg of tissue). The addition of 400 μL of methanol to 10 μL of homogenate in a 96-well plate allowed the precipitation of proteins. After capping and vortex mixing, the plate was centrifuged for 15 min at 3700 rpm at 6 °C, and an aliquot of 360 μL of supernatant transferred to a new plate and dried down under nitrogen stream (40 °C). The extract was reconstituted in 150 μL of 10 mM ammonium formate pH 3.5: methanol (90:10, v/v) and analyzed using the LC-MS-MS method, as described in Pharmacokinetic studies in rat paragraph. 1 ng/mL and 10 ng/g were the lower limits of quantitation for plasma and tissue, respectively.

[2] = Plasma protein binding by ultrafiltration, human, rat and dog; assay type: in vitro ADME; conditions: male, SD (rat), Beagle (dog), read-out: free fraction
Protocol: (§1) Plasma protein binding was performed via ultrafiltration (30,000 D cutoff, Amicon, Merck) with heparinized blood samples (male SD rats, Charles River Italy, and male Beagle dogs, Marshall Farms, Europe, Lyon, France) and fresh and frozen heparinized human blood samples collected from fasted healthy male subjects (at least two subjects for plasma samples), were supplied by AAI, Germany. MG3 final concentrations of 100, 300 and 1000 ng/mL were prepared using a 10 mg/mL stock solution while control samples at the same concentrations diluted in DPBS buffer (Dulbecco’s Phosphate Buffered Saline, Sigma-Aldrich) to evaluate the recovery. […] The percentage of bound drug (% Fbound) and of unbound drug (% Ffree) was determined using the following equations: % Fbound = [(Conc. Total–Conc. Free)/Conc. […] Total is the compound concentration determined in plasma and Conc. Free is the compound concentration determined in the ultrafiltrated samples. Results were expressed as % of binding and % of free fraction (single values and mean ± SD). […] Blood to plasma ratio was calculated as: Conc. in blood/Conc. in plasma; where, Conc. is the compound concentration determined in blood and in plasma at the same time of incubation.

[3] = Blood to plasma partitioning; assay type: in vitro ADME; conditions: male, whole blood, human blood, up to 30 min
Protocol: as §1

[4] = system: beta-hematin (malaria pigment) formation; set-up: method as in PMID 18538567; conditions: in vitro BHIA; cited from earlier work
[5] = system: P. falciparum FCR3 (CQ-R); assay: In vitro antimalarial activity, [3H]-hypoxanthine incorporation (LSHTM); assay type: cell-based; conditions: Plasmodium falciparum, FCR3; 72 h, [3H]-hypoxanthine incorporation, mean of 3 experiments; read-out: P. falciparum IC50 nM, FCR3 (CQ-R)
[6] = system: P. berghei ANKA; assay: Four-day suppressive Peters' test, oral; assay type: in vivo, P. berghei in CD1 mice; conditions: once a day for 4 days, parasitemia day 4, CD1 mice
Protocol: Groups of five CD1 mice were inoculated i.v., with 4 × 10^6 infected erythrocytes/mice. Compounds, dissolved in standard suspending formula (SSV) (0.5% sodium carboxymethylcellulose, 0.5% benzyl alcohol, 0.4% Tween 80, and 0.9% NaCl), were administered once a day for 4 days via oral gavage, starting two hours post-infection. […] Parasitemia was evaluated using microscopic examination of Giemsa-stained blood films taken on day four, processed using MICROSOFT® EXCEL spreadsheets (Microsoft Corp., Redmond, WA, USA), and expressed as percentages of inhibition from the arithmetic mean parasitemia of each group in relation to the untreated group. ED50 and ED90 values were calculated using GraphPad Prism 6 (GraphPad Software Inc., La Jolla, CA, USA).

[7] = system: P. falciparum 3D7 (CQ-S); assay: In vitro combination study (isobologram, ∑FIC); assay type: cell-based
[8] = system: Escherichia coli WP2 uvrA; assay: Bacterial Reverse Mutation Assay; conditions: with metabolic activation
Protocol: using the preincubation method (30 min, 37°C) with and without phenobarbital-5,6-benzoflavone induced
MG3 was dissolved in distilled water (H2O) at
the maximum concentration of 40 mg/mL and tested in a preliminary range-finding test in all strains of
metabolic activation to determine the toxicity of the compound.

Q: For `Clc1ccc2c(NCC34CCCN3CCC4)ccnc2c1` [MG3, 7-Chloro-N-((hexahydro-1H-pyrrolizin-7a-yl)methyl)quinolin-4-amine], which “tissues with the highest concentration” value [1] is on record?
A: lungs and ovaries

Q: What about the “concentration in tissues versus plasma” value ([1]; all time points 4–96 h) of the same molecule?
A: higher than in plasma

Q: And the “detected in all the analyzed tissues up to” value ([1]; post dose)?
A: 96 h

Q: What about the fraction unbound [2] of the same molecule?
A: 0.16 to 0.33

Q: And the blood plasma ratio at 300 ng/mL [3]?
A: ~1

Q: And the “inhibition of beta-hematin formation” value [4]?
A: able to inhibit the formation of beta-hematin

Q: And the IC50 [5]?
A: 13.2 nM

Q: What about the ED50 ([6]; Plasmodium berghei, 96 h, read-out: ED50 (95% CI) Mean) of the same molecule?
A: 5.22 mg/kg

Q: And the “ED90 (95% CI) Mean” value [6]?
A: 7.55 (6.38–8.72) mg/kg

Q: What about the “Mean ∑FIC50 (95% CI)” value ([7]; in combination with ASN, 3D7, IC50 level) of the same molecule?
A: 1.43 (1.30 – 1.55)

Q: And the “Mean ∑FIC50 (95% CI)” value ([7]; in combination with DHA, 3D7, IC50 level)?
A: 1.49 (1.33 – 1.65)

Q: And the “Mean ∑FIC50 (95% CI)” value ([7]; in combination with RKA-182, 3D7, IC50 level)?
A: 1.45 (1.17 – 1.73)

Q: What about the “interaction (isobologram)” value ([7]; in combination with azitromycin, 3D7 (CQ-S)) of the same molecule?
A: additive

Q: What about the “fold increase value (ratio treated/solvent revertant numbers)” value ([8]; I° Exp., 62.5 µg/plate) of the same molecule?
A: 1.4

Q: And the “fold increase value (ratio treated/solvent revertant numbers)” value ([8]; I° Exp., 125 µg/plate)?
A: 1.4

Q: What about the “fold increase value (ratio treated/solvent revertant numbers)” value ([8]; I° Exp., 250 µg/plate) of the same molecule?
A: 1.5

Q: What about the “fold increase value (ratio treated/solvent revertant numbers)” value ([8]; I° Exp., 500 µg/plate) of the same molecule?
A: 0.8

Q: And the “fold increase value (ratio treated/solvent revertant numbers)” value ([8]; I° Exp., 1000 µg/plate)?
A: 0.7

Q: What about the “fold increase value (ratio treated/solvent revertant numbers)” value ([8]; Range finding, 1.95 µg/plate) of the same molecule?
A: 1.0

Q: And the “fold increase value (ratio treated/solvent revertant numbers)” value ([8]; Range finding, 3.9 µg/plate)?
A: 0.9

Q: And the “fold increase value (ratio treated/solvent revertant numbers)” value ([8]; Range finding, 7.81 µg/plate)?
A: 0.9

Q: What about the “fold increase value (ratio treated/solvent revertant numbers)” value ([8]; Range finding, 15.63 µg/plate) of the same molecule?
A: 0.7

Q: And the “fold increase value (ratio treated/solvent revertant numbers)” value ([8]; Range finding, 31.25 µg/plate)?
A: 0.8

Q: And the “fold increase value (ratio treated/solvent revertant numbers)” value ([8]; Range finding, 62.5 µg/plate)?
A: 0.7

Q: What about the “fold increase value (ratio treated/solvent revertant numbers)” value ([8]; Range finding, 125 µg/plate) of the same molecule?
A: 0.9

Q: What about the “fold increase value (ratio treated/solvent revertant numbers)” value ([8]; Range finding, 250 µg/plate) of the same molecule?
A: 0.7

Q: And the “fold increase value (ratio treated/solvent revertant numbers)” value ([8]; Range finding, 500 µg/plate)?
A: 0.7

Q: And the “fold increase value (ratio treated/solvent revertant numbers)” value ([8]; Range finding, 1000 µg/plate)?
A: 0.8

From paper PMC10216263, “Favorable Preclinical Pharmacological Profile of a Novel Antimalarial Pyrrolizidinylmethyl Derivative of 4-amino-7-chloroquinoline with Potent In Vitro and In Vivo Activities” (Biomolecules, 2023)
